Like-named read-outs stand apart in the source and are kept apart here.
Tests used:
Dnmt1 [1] = target: T1, Dnmt1 (Homo sapiens, UniProt P26358); test: Glal restriction endonuclease-coupled DNA methylation assay (Test A); assay type: biochemical
From the text: (§1) A Glal restriction endonuclease-coupled DNA methylation assay was used to assess Dnmt1 activity (Syeda et al, J Biol Chem 2011, 286, 15344-15351). Upon methylation of the DNA substrate by Dnmt1, the DNA substrate is cleaved by Glal, freeing a 5′ fluorophore from the 3′ quencher, and generating a fluorescence signal. Inhibition of Dnmt1 results in a loss of fluorescence generation.
as §1, with “assay” for “assay was used”
First, laccaic acid was screened against the methyl-specific restriction endonuclease Glal (SibEnzyme, West Roxbury, Mass.) to ensure that the compound was not inhibiting Glal rather than Dnmt1. […] Increasing concentrations of laccaic acid A were used in the endonuclease-coupled DNA methylation assay to determine an IC50 value for the compound. […] Lastly, differential scanning fluorimetry was used to determine if laccaic acid A was a direct binder of Dnmt1 in the absence of the DNA or S-adenosyl methionine substrate.

[2] = test system: methyl-specific restriction endonuclease Glal; test: Counter-screen against methyl-specific restriction endonuclease Glal; assay type: biochemical; settings: under all conditions tested
Procedure: (§2) Laccaic acid A was further validated as a Dnmt1 inhibitor in three assays. First, laccaic acid was screened against the methyl-specific restriction endonuclease Glal (SibEnzyme, West Roxbury, Mass.) to ensure that the compound was not inhibiting Glal rather than Dnmt1. Under all conditions tested, Glal had full activity in the presence of laccaic acid A. Next, the concentration dependence of laccaic acid A inhibition on Dnmt1 activity was assessed. Increasing concentrations of laccaic acid A were used in the endonuclease-coupled DNA methylation assay to determine an IC50 value for the compound. Laccaic acid A was determined to have an IC50 value of 400 nM. […] Lastly, differential scanning fluorimetry was used to determine if laccaic acid A was a direct binder of Dnmt1 in the absence of the DNA or S-adenosyl methionine substrate.

Dnmt1 [3] = target: T1, Dnmt1; test: Differential scanning fluorimetry, direct binding to Dnmt1; settings: increase from 44° C.; absence of the DNA or S-adenosyl methionine substrate
Procedure: as §2

[4] = Table 1, Glal restriction endonuclease-coupled DNA methylation assay, read-out: IC50 (μM), Dnmt1 inhibition activity

T1 sequence (P26358 whole entry): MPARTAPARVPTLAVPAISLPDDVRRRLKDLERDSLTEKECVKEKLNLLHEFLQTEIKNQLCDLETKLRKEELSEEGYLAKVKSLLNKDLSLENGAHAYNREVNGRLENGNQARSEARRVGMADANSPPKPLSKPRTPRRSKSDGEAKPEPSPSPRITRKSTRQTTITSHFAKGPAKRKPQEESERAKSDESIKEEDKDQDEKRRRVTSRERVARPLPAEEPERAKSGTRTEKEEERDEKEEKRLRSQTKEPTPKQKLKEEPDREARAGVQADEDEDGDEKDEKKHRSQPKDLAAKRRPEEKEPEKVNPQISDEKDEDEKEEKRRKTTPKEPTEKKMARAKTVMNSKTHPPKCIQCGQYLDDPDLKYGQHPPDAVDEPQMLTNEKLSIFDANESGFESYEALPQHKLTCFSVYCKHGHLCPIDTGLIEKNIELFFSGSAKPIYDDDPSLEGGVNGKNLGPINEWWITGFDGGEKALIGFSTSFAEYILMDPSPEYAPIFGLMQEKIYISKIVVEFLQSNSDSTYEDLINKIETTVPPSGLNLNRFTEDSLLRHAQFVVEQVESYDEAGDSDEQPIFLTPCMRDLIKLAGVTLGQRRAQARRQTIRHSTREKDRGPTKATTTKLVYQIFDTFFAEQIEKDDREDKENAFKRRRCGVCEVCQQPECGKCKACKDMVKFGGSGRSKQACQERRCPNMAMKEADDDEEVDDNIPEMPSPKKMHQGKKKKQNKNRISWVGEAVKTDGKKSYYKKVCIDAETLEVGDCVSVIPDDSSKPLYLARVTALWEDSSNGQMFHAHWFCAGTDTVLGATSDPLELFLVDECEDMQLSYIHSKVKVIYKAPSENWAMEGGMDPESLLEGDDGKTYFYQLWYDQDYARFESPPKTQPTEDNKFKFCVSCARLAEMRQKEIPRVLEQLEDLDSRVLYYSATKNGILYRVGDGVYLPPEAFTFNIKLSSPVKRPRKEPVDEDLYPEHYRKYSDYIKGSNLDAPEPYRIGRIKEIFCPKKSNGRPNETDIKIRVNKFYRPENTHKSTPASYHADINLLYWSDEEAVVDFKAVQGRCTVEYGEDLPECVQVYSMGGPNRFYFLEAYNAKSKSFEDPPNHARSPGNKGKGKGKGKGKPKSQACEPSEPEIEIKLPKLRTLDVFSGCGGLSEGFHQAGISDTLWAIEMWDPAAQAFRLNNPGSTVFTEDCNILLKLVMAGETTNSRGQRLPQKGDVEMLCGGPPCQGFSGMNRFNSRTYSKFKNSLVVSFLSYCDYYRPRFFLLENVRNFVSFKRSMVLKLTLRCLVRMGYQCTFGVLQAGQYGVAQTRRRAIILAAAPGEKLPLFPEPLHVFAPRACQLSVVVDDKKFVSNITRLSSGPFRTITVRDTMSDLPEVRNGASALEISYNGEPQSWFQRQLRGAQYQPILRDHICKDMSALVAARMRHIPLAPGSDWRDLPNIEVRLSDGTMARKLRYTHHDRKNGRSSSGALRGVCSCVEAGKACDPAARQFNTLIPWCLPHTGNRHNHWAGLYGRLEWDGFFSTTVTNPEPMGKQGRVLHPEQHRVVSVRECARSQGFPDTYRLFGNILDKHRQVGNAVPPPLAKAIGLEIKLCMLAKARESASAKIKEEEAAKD

SMILES	IC50 (Dnmt1 [1]; [4])	further results
CC(=O)NCCc1ccc(O)c(-c2c(O)c(O)c3c(c2O)C(=O)c2c(cc(O)c(C(=O)O)c2C(=O)O)C3=O)c1 [II, Laccaic Acid A]	2.1 µM	IC50 (Dnmt1 [1]; increasing concentrations in the endonuclease-coupled DNA methylation assay, read-out: IC50 value, inhibition of Dnmt1 activity): 0.4 µM; fold more potent at inhibition of Dnmt1 than SG14027 (Dnmt1 [1]; ratio of IC50 values, versus SG14027): 5 fold; outcome of high throughput screen for inhibitors of Dnmt1 activity (Dnmt1 [1]; screen of the Spectrum collection (Microsource)): hit; Glal activity in the presence of compound [2]: full activity; observed melting temperature of Dnmt1 after addition of compound (Dnmt1 [3]): 45.7 °C
Oc1cc(Cl)ccc1Oc1ccc(Cl)cc1Cl [III, Triclosan, reference compound]	3.8 µM	–
O=C(O)c1cc(O)c2c(c1)[C@@H]([C@H]1c3cc(C(=O)O)cc(O)c3C(=O)c3c(O[C@H]4O[C@H](CO)[C@@H](O)[C@H](O)[C@H]4O)cccc31)c1cccc(O[C@H]3O[C@H](CO)[C@@H](O)[C@H](O)[C@H]3O)c1C2=O [IV, Sennoside A, reference compound]	0.45 µM	–
O=C(O)C(S)C(S)C(=O)O (centres unmarked) [IX, 2,3-Dimercaptosuccinic Acid, reference compound]	0.33 µM	–
O=C(O)c1cc(O)c2c(c1)[C@@H]([C@@H]1c3cc(C(=O)O)cc(O)c3C(=O)c3c(O[C@H]4O[C@H](CO)[C@@H](O)[C@H](O)[C@H]4O)cccc31)c1cccc(O[C@H]3O[C@H](CO)[C@@H](O)[C@H](O)[C@H]3O)c1C2=O [V, Sennoside B, reference compound]	0.45 µM	–
O=C1c2ccccc2C(=O)c2c1ccc(O)c2O [VI, Alizarin]	11 µM	–
O=c1c(O)c(-c2ccc(O)c(O)c2)oc2c(O)c(O)cc(O)c12 [VII, Gossypetin]	2.9 µM	–
O=C1C=CC(=O)c2c(O)cccc21 [VIII, Juglone]	1.7 µM	–
CSc1nc2cc(Cl)c(Oc3cccc(Cl)c3Cl)cc2[nH]1 [XI, Triclabendazole, reference compound]	6.1 µM	–

From US20130225517A1, “Therapeutic Compounds” (University of Iowa Research Foundation, priority 2012, published 2013)
